Patent US9518022B2, “Anti-HIV compounds” (priority 2014, dated 2016)

Experiment: Cytotoxicity assay (AlamarBlue) in mock infected MT-2 cells
Type: cell-based
Conditions: human
Description: The present assay was used to screen candidate antiviral compounds by quantification of virus spread and production over several rounds of infection in vitro. MT-2, a HIV-1 permissive human T-cell line, was seeded in microtiter plates and was simultaneously treated with serially diluted compound and inoculated with a HIV-1 NL4-3 viral clone engineered to express Renilla luciferase in place of Nef. Following treatment, the culture was incubated for 96 hours. After the incubation, media was collected and used to estimate relative infectivity on the indicator cell line, TZM-bl. Additionally, viral spread was quantified by measuring luciferase activity via a commercially available luciferase substrate. In parallel, MT-2 cells were seeded and inoculated with mock virus in the presence of serially diluted compound. Compound toxicity was quantified 96 hours after treatment with AlamarBlue.
MT-2 (NIH Aids reagent program 237) cells were grown and maintained in an incubator at 37° C. with 5% CO2 using a basal medium of RPMI-1640 supplemented with 10% FBS. Cells were seeded in 100 μl at 2×10^4 cells/well in white walled 96-well microtiter plates. Candidate compounds were 3-fold serially diluted in the appropriate solvent. Solvent without compound was used as a no drug reference. Cells were inoculated at a multiplicity of 0.027 with an HIV-1 NL4-3 virus stock engineered to express Renilla luciferase in place of Nef. Diluted virus stock was first added to serially diluted compound. Compound and virus were delivered to cells in an equal volume (100 μl) and treated cultures were returned to the incubator for 96 hours. In parallel, plates for cytotoxicity estimates were prepared in the same way except cells were plated in clear walled 96-well microtiter plates and were mock infected.
At 96 hours post treatment, 20 μl AlamarBlue proliferation reagent was added to 200 μl treated and mock infected cultures and incubated for 3 hours at 37° C. with 5% CO2 then read at 545, 590 nm on fluorescence plate reader (Biotek).
For all assays, data was imported into Accelrys Assay Explorer 3.3. In Assay Explorer, % inhibition (antiviral or cytotoxicity) was calculated using the solvent control as a reference by the following equation: 1−(SignalCompound/SignalReference). The % Inhibition and compound concentration data was fitted using the following 4-parameter logistic model (Assay Explorer model 42):
[formula] where X is compound concentration, Y is % inhibition, D is the maximum % Inhibition (constrained to 100%), C is IC50 value or inflection point, B is the hill slope, and A is the minimum % inhibition (constrained to 0%). The IC50 value is reported as the EC50 or CC50 depending on the assay endpoint. EC50 represents the effective concentration at which virus replication is inhibited by 50 percent. CC50 represents the concentration that results in the death of 50 percent of the host cells. The selectivity or therapeutic index (SI or TI), is the ratio of CC50 over EC50 and represents the relative effectiveness in inhibiting viral replication compared to inducing cell death.

`COCCCCOc1cc(OC)ccc1/C=C/C1NCCc2cc(OCc3ccccc3)c(OC)cc21` (stereo not drawn) [Example AI, (E)-6-(benzyloxy)-7-methoxy-1-(4-methoxy-2-(4-methoxybutoxy)styryl)-1,2,3,4-tetrahydroisoquinoline] and `CCCCOc1cc(/C=C/C2NCCc3cc(OCc4ccccc4)c(OC)cc32)ccc1OC` (stereo not drawn) [BE, 6-(benzyloxy)-1-[(E)-2-(3-butoxy-4-methoxyphenyl)ethenyl]-7-methoxy-1,2,3,4-tetrahydroisoquinoline] are within 1.5-fold of each other in CC50 at 96 h: 5.6 µM for the first, 3.75 µM for the second.

Going from `COc1cc(/C=C/C2NCCc3cc(OC)c(OCc4ccccc4)cc32)ccc1OCc1ccccc1` (stereo not drawn) [Example S, 7-benzyloxy-1-[(E)-2-(4-benzyloxy-3-methoxy-phenyl)vinyl]-6-methoxy-1,2,3,4-tetrahydroisoquinoline] to `COc1cc(Cl)c(/C=C/C2NCCc3cc(OCc4ccccc4)c(OC)cc32)cc1OCc1ccccc1` (stereo not drawn) [Example AC, 6-benzyloxy-1-[(E)-2-(5-benzyloxy-2-chloro-4-methoxy-phenyl)vinyl]-7-methoxy-1,2,3,4-tetrahydroisoquinoline], the CC50 at 96 h falls from 8.25 µM to 1.9 µM (4.3-fold).

Going from `COc1cc2c(cc1OCc1ccccc1)CCNC2/C=C/c1ccc2c(c1)OCC2` (stereo not drawn) [EG, 6-(benzyloxy)-1-[(E)-2-(2,3-dihydro-1-benzofuran-6-yl)ethenyl]-7-methoxy-1,2,3,4-tetrahydroisoquinoline] to `COc1cc2c(cc1OCc1ccccc1)CCNC2/C=C/c1ccc2c(c1)OC(F)(F)O2` (stereo not drawn) [DF, 6-(benzyloxy)-1-[(E)-2-(2,2-difluoro-2H-1,3-benzodioxol-5-yl)ethenyl]-7-methoxy-1,2,3,4-tetrahydroisoquinoline], the CC50 at 96 h falls from 19.3 µM to 10 µM (1.9-fold).

`COc1cc2c(cc1OCc1ccccc1)CCNC2/C=C/c1cccc(OCc2ccccc2)c1` (stereo not drawn) [BK, 6-(benzyloxy)-1-[(E)-2-[3-(benzyloxy)phenyl]ethenyl]-7-methoxy-1,2,3,4-tetrahydroisoquinoline] and `COc1cc2c(cc1OCc1ccccc1)CCNC2/C=C/c1cccc(-c2ccncc2)c1` (stereo not drawn) [DQ, 6-(benzyloxy)-7-methoxy-1-[(E)-2-[3-(pyridin-4-yl)phenyl]ethenyl]-1,2,3,4-tetrahydroisoquinoline] are within 1.5-fold of each other in CC50 at 96 h: 4 µM for the first, 4.4 µM for the second.

`COc1cc2c(cc1OCc1ccccc1)CCNC2/C=C/c1ccc(OC)c(C(F)(F)F)c1` (stereo not drawn) [CY, 6-(benzyloxy)-7-methoxy-1-[(E)-2-[4-methoxy-3-(trifluoromethyl)phenyl]ethenyl]-1,2,3,4-tetrahydroisoquinoline] and `COc1cc2c(cc1OCc1ccccc1)CCNC2/C=C/c1ccc(OC(F)(F)F)cc1C` (stereo not drawn) [Example AJ, (E)-6-(benzyloxy)-7-methoxy-1-(2-methyl-4-(trifluoromethoxy)styryl)-1,2,3,4-tetrahydroisoquinoline] are within 1.5-fold of each other in CC50 at 96 h: 4 µM for the first, 5 µM for the second.

`COc1cc(C)c(/C=C/C2c3cc(OC)c(OCc4ccccc4)cc3CCN2C)cc1OCc1ccccc1` (stereo not drawn) [Example E, 6-Benzyloxy-1-[(E)-2-(5-benzyloxy-4-methoxy-2-methyl-phenyl)vinyl]-7-methoxy-2-methyl-3,4-dihydro-1H-isoquinoline] and `COc1ccc(/C=C/C2c3cc(OC)c(OCc4ccccc4)cc3CCN2C)cc1OCc1ccccc1` (stereo not drawn) [Example V, 6-benzyloxy-1-[(E)-2-(3-benzyloxy-4-methoxy-phenyl)vinyl]-7-methoxy-2-methyl-3,4-dihydro-1H-isoquinoline] are within 1.5-fold of each other in CC50 at 96 h: 7.17 µM for the first, 6.68 µM for the second.

`COc1cc2c(cc1OCc1ccccc1)CCNC2/C=C/c1cc2ccccc2n1C(=O)OC(C)(C)C` (stereo not drawn) [CH, tert-butyl 2-[(E)-2-[6-(benzyloxy)-7-methoxy-1,2,3,4-tetrahydroisoquinolin-1-yl]ethenyl]-1H-indole-1-carboxylate] and `COc1cc2c(cc1OCc1ccccc1)CCNC2/C=C/c1ccc(N(C)C)cc1C` (stereo not drawn) [BG, 4-[(E)-2-[6-(benzyloxy)-7-methoxy-1,2,3,4-tetrahydroisoquinolin-1-yl]ethenyl]-N,N,3-trimethylaniline] are within 1.5-fold of each other in CC50 at 96 h: 3.48 µM for the first, 4.44 µM for the second.

Compared with `COc1cc2c(cc1OCc1ccccc1)CCNC2/C=C/c1ccnn1C` (stereo not drawn) [Example AK, 6-benzyloxy-7-methoxy-1-[(E)-2-(2-methylpyrazol-3-yl)vinyl]-1,2,3,4-tetrahydroisoquinoline], `COc1cc2c(cc1OCc1ccccc1)CCNC2/C=C/c1cc2c(cc1C)OCO2` (stereo not drawn) [BB, 6-(benzyloxy)-7-methoxy-1-[(E)-2-(6-methyl-2H-1,3-benzodioxol-5-yl)ethenyl]-1,2,3,4-tetrahydroisoquinoline] is 3.4-fold lower in CC50 at 96 h: 10 µM for the first, 2.98 µM for the second.

Compared with `COc1cc(F)c(/C=C/C2NCCc3cc(OCc4ccccc4)c(OC)cc32)cc1OC` (stereo not drawn) [BP, 6-(benzyloxy)-1-[(E)-2-(2-fluoro-4,5-dimethoxyphenyl)ethenyl]-7-methoxy-1,2,3,4-tetrahydroisoquinoline], `COc1cc2c(cc1OCc1ccccc1)CCNC2/C=C/c1ccc(OC)c(C)c1C` (stereo not drawn) [EL, 6-(benzyloxy)-7-methoxy-1-[(E)-2-(4-methoxy-2,3-dimethylphenyl)ethenyl]-1,2,3,4-tetrahydroisoquinoline] is 1.7-fold lower in CC50 at 96 h: 5.61 µM for the first, 3.25 µM for the second.

First: COc1cc2c(cc1OCc1ccccc1)CCNC2/C=C/c1ccc(N2CCN(C)CC2)cc1 (stereo not drawn) [DW, 6-(benzyloxy)-7-methoxy-1-[(E)-2-[4-(4-methylpiperazin-1-yl)phenyl]ethenyl]-1,2,3,4-tetrahydroisoquinoline]
Second: COc1cc2c(cc1OCc1ccccc1)CCNC2/C=C/c1ccc(-c2cncnc2)cc1 (stereo not drawn) [DS, 6-(benzyloxy)-7-methoxy-1-[(E)-2-[4-(pyrimidin-5-yl)phenyl]ethenyl]-1,2,3,4-tetrahydroisoquinoline]
The CC50 at 96 h of the first is 3.2-fold lower: 2.31 µM for the first, 7.39 µM for the second.

Going from `COc1cc(C)c(/C=C/C2NCCc3cc(OCc4ccccc4)c(OC)cc32)cc1OCCCC(=O)O` (stereo not drawn) [BO, 4-{5-[(E)-2-[6-(benzyloxy)-7-methoxy-1,2,3,4-tetrahydroisoquinolin-1-yl]ethenyl]-2-methoxy-4-methylphenoxy}butanoic acid] to `COc1cccc(-c2ncc(/C=C/C3NCCc4cc(OCc5ccccc5)c(OC)cc43)cn2)c1` (stereo not drawn) [DN, 6-(benzyloxy)-7-methoxy-1-[(E)-2-[2-(3-methoxyphenyl)pyrimidin-5-yl]ethenyl]-1,2,3,4-tetrahydroisoquinoline], the CC50 at 96 h rises from 8.96 µM to 17.1 µM (1.9-fold).

Compared with `CCCCN1CCc2cc(OC)c(OCc3ccccc3)cc2C1/C=C/c1ccc(OCc2ccccc2)c(OC)c1` (stereo not drawn) [Example D, 7-Benzyloxy-1-[(E)-2-(4-benzyloxy-3-methoxy-phenyl)vinyl]-2-butyl-6-methoxy-3,4-dihydro-1H-isoquinoline], `CCCCN1CCc2cc(OCc3ccccc3)c(OC)cc2C1/C=C/c1ccc(OC)c(OCc2ccccc2)c1` (stereo not drawn) [Example G, 6-Benzyloxy-1-[(E)-2-(3-benzyloxy-4-methoxy-phenyl)vinyl]-2-butyl-7-methoxy-3,4-dihydro-1H-isoquinoline] is lower in CC50 at 96 h: over 10 µM for the first, 5 µM for the second.

Work on `COc1cc(C)c(/C=C/C2c3cc(OC)c(OCc4ccccc4)cc3CCN2C(=O)NC(C)(C)C)cc1OCc1ccccc1` (stereo not drawn) [Example O, 6-benzyloxy-1-[(E)-2-(5-benzyloxy-4-methoxy-2-methyl-phenyl)vinyl]-N-tert-butyl-7-methoxy-3,4-dihydro-1H-isoquinoline-2-carboxamide] yielded a CC50 at 96 h of over 10 µM.

Same assay, conditions: human; mock infected MT-2 cells, 96 hours, AlamarBlue; read-out: CC50

First: COc1ccc(/C=C/C2NCCc3cc(OCc4ccccc4)c(OC)cc32)cn1 (stereo not drawn) [AX, 6-benzyloxy-7-methoxy-1-[(E)-2-(6-methoxy-3-pyridyl)vinyl]-1,2,3,4-tetrahydroisoquinoline]
Second: COc1cc(/C=C/C2NCCc3cc(OCc4ccccc4)c(OC)cc32)ccn1 (stereo not drawn) [AU, 6-benzyloxy-7-methoxy-1-[(E)-2-(2-methoxy-4-pyridyl)vinyl]-1,2,3,4-tetrahydroisoquinoline]
The CC50 at 96 h of the first is 3.5-fold higher: 11.4 µM for the first, 3.22 µM for the second.

`COc1ccc(/C=C/C2NCCc3cc(OCc4ccccc4)c(OC)cc32)cc1OCc1ccccc1` (stereo not drawn) [Example AB, 6-benzyloxy-1-[(E)-2-(3-benzyloxy-4-methoxy-phenyl)vinyl]-7-methoxy-1,2,3,4-tetrahydroisoquinoline] and `COc1ccc(OC)c(/C=C/C2NCCc3cc(OCc4ccccc4)c(OC)cc32)c1` (stereo not drawn) [EK, 6-(benzyloxy)-1-[(E)-2-(2,5-dimethoxyphenyl)ethenyl]-7-methoxy-1,2,3,4-tetrahydroisoquinoline] are within 1.5-fold of each other in CC50 at 96 h: 3.96 µM for the first, 3.6 µM for the second.

`COc1cc2c(cc1OCc1ccccc1)CCNC2/C=C/c1ccccc1C` (stereo not drawn) [Example W, 6-benzyloxy-7-methoxy-1-[(E)-2-(o-tolyl)vinyl]-1,2,3,4-tetrahydroisoquinoline] showed a CC50 at 96 h of 4 µM.
